Entries after “also recorded” stand apart in the source; their conditions may differ. Where two headings read alike, the source gives them in different places.
Key:
[1] = Single dose intravenous PK study in male Sprague Dawley rats (plasma by LC-MS/MS); type: in vivo; settings: for Cmax / AUC(0-inf) / AUC(0-t) / clearance / MRT last / half-life / Vd: iv, 2 mg/kg; for Plasma concentration of PRX-002 (−) Isomer: PRX-002 (−) Isomer IV 2 mg/kg b.w.
Outline: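 Adult male Sprague Dawley rats (8-10 weeks) received IV bolus prodrug at 2 mg/kg PRX-002-equivalent unless specified, with 10 or 15 mg/kg in some studies; formulations in PEG 400/HPβCD/water (±DMSO), freshly prepared. Retro-orbital K2EDTA plasma sampled over 24 h; fencamfamine quantified by LC-MS/MS, AUC versus unconjugated fencamfamine.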

[2] = system: spontaneous locomotor activity; test: Spontaneous locomotor activity (sLMA), intravenous administration; type: in vivo, Male SD rats; settings: 90 min recording, vs vehicle
Experimental: Male SD rats were intravenously administered with PRX-002(−) (2 mg/kg) and prodrug PRX-P4-003 [(25.8 mg/kg, equivalent to 10 mg/kg of PRX-002 (−)], and vehicle just before sLMA test.
Vehicle was: 10% PEG 400 (v/v)+30% (v/v) of (50% w/v) Hydroxypropyl-ß-cyclodextrin in water+60% (v/v) sterile water for injection (SWFI): 1 ml/kg volume.
PRX-P4-003 solution was: 25.8 mg/ml PRX-P4-003 (25.8 mg/kg: equivalent to 10 mg/ml active drug, i.v. @volume of 1 ml/kg). 42.3 mg PRX-P4-003 was added to vehicle 1.639 ml, vortexed for 30 min under room temperature to get a uniform suspension solution, suspension solution was continuously stirred during dosage.
The PRX-P4-002(−) solution was: 2 mg/ml PRX-P4-002(−) (2 mg/kg, i.v.@volume of 1 ml/kg). 4.5 mg PRX-002(−) was added to 2.25 ml Vehicle, vortexed for 30 min under room temperature to get a clear solution, the solution was continuously stirred during dosage.
Rat was placed at the center of test chamber for the 90 min sLMA video recording. (n=3/group).

CCCCCCCCCCCCCCCCCC(=O)OCOC(=O)N(CC)C1C2CCC(C2)C1c1ccccc1 (single isomer, unassigned) [PRX-P4-003, N-(Octadecanoyloxymethoxycarbonyl)-(−)-N-ethyl-3-phenylbicyclo[2.2.1]heptan-2-amine]
Plasma concentration of PRX-P4-003 ([1]; PRX-P4-003 IV 2 mg/kg b.w., 0.08 h, mean): 171.96 | Plasma concentration of PRX-P4-003 ([1]; PRX-P4-003 IV 2 mg/kg b.w., 0.25 h, mean): 47.94 | Plasma concentration of PRX-P4-003 ([1]; PRX-P4-003 IV 2 mg/kg b.w., 0.50 h, mean): 26.73 | Plasma concentration of PRX-P4-003 ([1]; PRX-P4-003 IV 2 mg/kg b.w., 1.00 h, mean): 20.03 | Plasma concentration of PRX-P4-003 ([1]; PRX-P4-003 IV 2 mg/kg b.w., 2.00 h, mean): 18.29 | Plasma concentration of PRX-P4-003 ([1]; PRX-P4-003 IV 2 mg/kg b.w., 4.00 h, mean): 14.23 | Plasma concentration of PRX-P4-003 ([1]; PRX-P4-003 IV 2 mg/kg b.w., 6.00 h, mean): 10.72 | Plasma concentration of PRX-P4-003 ([1]; PRX-P4-003 IV 2 mg/kg b.w., 24.00 h, mean): 0.00 | AUC% extrap of PRX-P4-003 ([1]; PRX-P4-003 IV 2 mg/kg, mean): 32.475 ± 83.3890% | Plasma concentration of PRX-P4-003 ([1]; PRX-P4-003 IV 10 mg/kg b.w., 0.08 h, mean): 199.64 | Plasma concentration of PRX-P4-003 ([1]; PRX-P4-003 IV 10 mg/kg b.w., 0.25 h, mean): 27.98 | Plasma concentration of PRX-P4-003 ([1]; PRX-P4-003 IV 10 mg/kg b.w., 0.50 h, mean): 8.96 | Plasma concentration of PRX-P4-003 ([1]; PRX-P4-003 IV 10 mg/kg b.w., 1.00 h, mean): 0.00 | Plasma concentration of PRX-P4-003 ([1]; PRX-P4-003 IV 10 mg/kg b.w., 2.00 h, mean): 0.00 | Plasma concentration of PRX-P4-003 ([1]; PRX-P4-003 IV 10 mg/kg b.w., 4.00 h, mean): 0.00 | Plasma concentration of PRX-P4-003 ([1]; PRX-P4-003 IV 10 mg/kg b.w., 6.00 h, mean): 0.00 | Plasma concentration of PRX-P4-003 ([1]; PRX-P4-003 IV 10 mg/kg b.w., 24.00 h, mean): 0.00 | Conversion of pro-drug form to active form PRX-002(−) isomer in plasma ([1]; PRX-P4-003 IV administration (FIG. 2)): minimal amounts | Amount of parent PRX-002 (−) generated ([1]; PRX-P4-003 IV, even at higher dose of 10 mg/kg (FIG. 3)): very limited amount | Cmax ([1]; male, Sprague Dawley, rat, plasma, IV 2 mg/kg [equivalent to PRX-002 (−)], analyte: prodrug in plasma, mean, read-out: IV PK Parameters Cmax, Prodrug): 172 ± 62.6 ng/mL | AUC ([1]; male, Sprague Dawley, rat, IV 2 mg/kg [equivalent to PRX-002 (−)], analyte: prodrug in plasma, mean, read-out: IV PK Parameters AUC, Prodrug): 133 ± 32.5 ng·h/mL | Tmax ([1]; male, Sprague Dawley, rat, IV 2 mg/kg [equivalent to PRX-002 (−)], analyte: prodrug in plasma, mean, read-out: IV PK Parameters Tmax, Prodrug): 4.8 min | AUC(0-inf) ([1]; male, Sprague-Dawley, rat, plasma, PRX-P4-003 IV 2 mg/kg, mean, read-out: AUCinf of PRX-P4-003): 216 ± 83.4 ng·h/mL | AUC(0-t) ([1]; male, Sprague-Dawley, rat, plasma, PRX-P4-003 IV 2 mg/kg, mean, read-out: AUClast of PRX-P4-003): 133 ± 32.5 ng·h/mL | clearance ([1]; male, Sprague-Dawley, rat, plasma, PRX-P4-003 IV 2 mg/kg, mean, read-out: CL of PRX-P4-003): 172 ± 69.3 mL/min/kg | Cmax ([1]; male, Sprague-Dawley, rat, plasma, PRX-P4-003 IV 2 mg/kg, mean, read-out: Cmax of PRX-P4-003): 172 ± 62.6 ng/mL | MRT last ([1]; male, Sprague-Dawley, rat, plasma, PRX-P4-003 IV 2 mg/kg, mean, read-out: MRTlast of PRX-P4-003): 1.84 ± 0.713 h | half-life ([1]; male, Sprague-Dawley, rat, plasma, PRX-P4-003 IV 2 mg/kg, mean, read-out: T1/2 of PRX-P4-003 (converted)): 3.35 ± 2.18 h | Vd ([1]; male, Sprague-Dawley, rat, plasma, PRX-P4-003 IV 2 mg/kg, mean, read-out: Vss of PRX-P4-003): 42 ± 19.9 L/kg | Tmax ([1]; male, Sprague-Dawley, rat, plasma, PRX-P4-003 IV 2 mg/kg, mean, read-out: Tmax of PRX-P4-003): 4.8 min | Spontaneous locomotor activity (sLMA): total traveling distance and duration ([2]; i.v. 25.8 mg/kg, equivalent to 10 mg/kg of PRX-002 (−)): no increase in sLMA; also recorded: practically no change

CCN[C@@H]1[C@@H]2CC[C@@H](C2)[C@H]1c1ccccc1 [PRX-002 (−) Isomer, (1R,2R,3S,4S)—N-Ethyl-3-phenylbicyclo[2.2.1]heptan-2-amine, reference compound]
Plasma concentration of PRX-002 (−) Isomer ([1]; 0.08 h, mean): 142.01 | Plasma concentration of PRX-002 (−) Isomer ([1]; 0.25 h, mean): 112.59 | Plasma concentration of PRX-002 (−) Isomer ([1]; 0.50 h, mean): 81.21 | Plasma concentration of PRX-002 (−) Isomer ([1]; 1.00 h, mean): 58.82 | Plasma concentration of PRX-002 (−) Isomer ([1]; 2.00 h, mean): 53.05 | Plasma concentration of PRX-002 (−) Isomer ([1]; 4.00 h, mean): 16.55 | Plasma concentration of PRX-002 (−) Isomer ([1]; 6.00 h, mean): 0.00 | Plasma concentration of PRX-002 (−) Isomer ([1]; 24.00 h, mean): 0.00 | AUC% extrap of PRX-002 (−) Isomer ([1]; PRX-002 (−) Isomer IV 2 mg/kg, mean): 14.056 ± 5.0710% | AUC(0-inf) ([1]; male, Sprague Dawley, rat, plasma, PRX-002 (−) Isomer IV 2 mg/kg, mean, read-out: AUCinf of PRX-002 (−) Isomer): 256 ± 44.3 ng·h/mL | AUC(0-t) ([1]; male, Sprague Dawley, rat, plasma, PRX-002 (−) Isomer IV 2 mg/kg, mean, read-out: AUClast of PRX-002 (−) Isomer): 219 ± 23.9 ng·h/mL | clearance ([1]; male, Sprague Dawley, rat, plasma, PRX-002 (−) Isomer IV 2 mg/kg, mean, read-out: CL of PRX-002 (−) Isomer): 133 ± 21 mL/min/kg | Cmax ([1]; male, Sprague Dawley, rat, plasma, PRX-002 (−) Isomer IV 2 mg/kg, mean, read-out: Cmax of PRX-002 (−) Isomer): 143 ± 1.75 ng/mL | MRT last ([1]; male, Sprague Dawley, rat, plasma, PRX-002 (−) Isomer IV 2 mg/kg, mean, read-out: MRTlast of PRX-002 (−) Isomer): 1.33 ± 0.118 h | half-life ([1]; male, Sprague Dawley, rat, plasma, PRX-002 (−) Isomer IV 2 mg/kg, mean, read-out: T1/2 of PRX-002 (−) Isomer (converted)): 1.51 ± 0.223 h | Vd ([1]; male, Sprague Dawley, rat, plasma, PRX-002 (−) Isomer IV 2 mg/kg, mean, read-out: Vss of PRX-002 (−) Isomer): 15.7 ± 0.339 L/kg | Tmax ([1]; male, Sprague Dawley, rat, plasma, PRX-002 (−) Isomer IV 2 mg/kg, mean, read-out: Tmax of PRX-002 (−) Isomer): 8.22 ± 5.88 min | Spontaneous locomotor activity (sLMA): total traveling distance and duration ([2]; i.v. 2 mg/kg): significantly increased sLMA

Source: patent US10662146B2, “Prodrugs of fencamfamine” (Praxis Bioresearch, LLC, priority 2015, dated 2020)
